Measurements from patent EP0207453B1 (priority 1985, dated 1987).
Converted amounts (≈) assume the structure as drawn.

What follows are compounds tested on Polio 2 (assay: microbe, parasite or virus in culture). Details: HeLa, read-out: MIC (Polio 2).
Format: cell-based, polioviruses

Row | SMILES | MIC
1 | Cc1cc(CCCCCOc2ccc(-c3cccs3)cc2)on1 [Example 2, 3-Methyl-5-{5-(4-(2-thienyl)phenoxy]pentyl}-isoxazole] | 0.02 µg/mL (≈ 0.0611 µM)
2 | Cc1cc(CCCCCOc2c(Cl)cc(-c3ccc(C)s3)cc2Cl)on1 [10(b), 5-{5-[2,6-Dichloro-4-(5-methyl-2-thienyl)phenoxy]pentyl}-3-methylisoxazole] | 4.4 µg/mL (≈ 10.7 µM)
3 | Cc1cc(CCCCCOc2ccc(-c3nc(C)c(C)s3)cc2)on1 [Example 3, 3-Methyl-5-{5-[4-(4,5-dimethyl-2-thiazolyl)phenoxy]-pentyl}isoxazole] | 1 µg/mL (≈ 2.81 µM)
4 | Cc1cc(CCCCCOc2ccc(-c3nc4ccccc4o3)cc2)on1 [Example 6, 5-{5-[4-(2-Benzoxazolyl)phenoxy]pentyl}-3-methylisoxazole] | 0.9 µg/mL (≈ 2.48 µM)
5 | Cc1cc(CCCCCOc2ccc(-c3nccs3)cc2)on1 [Example 20, 3-Methyl-5-{5-[4-(2-thiazolyl)phenoxy]pentyl}-isoxazole] | 0.06 µg/mL (≈ 0.183 µM)
6 | Cc1cc(CCCCCOc2c(Cl)cc(-c3nnn(C)n3)cc2Cl)on1 [23 (1st compd.), 5-{5-[2,6-dichloro-4-(2-methyl-2H-tetrazol-5-yl)phenoxy]pentyl}-3-methylisoxazole] | 2.9 µg/mL (≈ 7.32 µM)
7 | Cc1cc(CCCCCOc2c(Cl)cc(-c3cccs3)cc2Cl)on1 [Example 1(c), 5-{5-[2,6-Dichloro-4-(2-thienyl)phenoxy]pentyl}-3-methylisoxazole] | 2.5 µg/mL (≈ 6.31 µM)
